Laboratory results from patent US6649654B1, “Methods for identifying and using IKK inhibitors” (The Regents of the University of California, priority 1999, dated 2003).
Entries after “also recorded” stand apart in the source; their conditions may differ.

What was measured:
Sp1 = biological target: T1, Sp1 (Homo sapiens, UniProt P08047); assay: Sp1 DNA binding activity; format: cell-based
T1 construct: endogenous in cells; host or cells: Jurkat (PGA1); cells of the 15dPGJ2 experiment not clearly stated

[1] = system: carrageenin-induced pleurisy; details: rats, endogenous and exogenous 15dPGJ2; Gilroy et al.; cited from earlier work
IKKβ(C179A) = biological target: T2, IKKβ(C179A) (Homo sapiens, UniProt O14920, C179A); assay: Recombinant IKKβ(C179A) (Sf9) kinase activity; format: biochemical; set-up: FLAG; made in house; host or cells: Sf9 (baculovirus); details: FIG. 6D; PGA1 data not shown
T2 sequence (O14920 1-756 C179A): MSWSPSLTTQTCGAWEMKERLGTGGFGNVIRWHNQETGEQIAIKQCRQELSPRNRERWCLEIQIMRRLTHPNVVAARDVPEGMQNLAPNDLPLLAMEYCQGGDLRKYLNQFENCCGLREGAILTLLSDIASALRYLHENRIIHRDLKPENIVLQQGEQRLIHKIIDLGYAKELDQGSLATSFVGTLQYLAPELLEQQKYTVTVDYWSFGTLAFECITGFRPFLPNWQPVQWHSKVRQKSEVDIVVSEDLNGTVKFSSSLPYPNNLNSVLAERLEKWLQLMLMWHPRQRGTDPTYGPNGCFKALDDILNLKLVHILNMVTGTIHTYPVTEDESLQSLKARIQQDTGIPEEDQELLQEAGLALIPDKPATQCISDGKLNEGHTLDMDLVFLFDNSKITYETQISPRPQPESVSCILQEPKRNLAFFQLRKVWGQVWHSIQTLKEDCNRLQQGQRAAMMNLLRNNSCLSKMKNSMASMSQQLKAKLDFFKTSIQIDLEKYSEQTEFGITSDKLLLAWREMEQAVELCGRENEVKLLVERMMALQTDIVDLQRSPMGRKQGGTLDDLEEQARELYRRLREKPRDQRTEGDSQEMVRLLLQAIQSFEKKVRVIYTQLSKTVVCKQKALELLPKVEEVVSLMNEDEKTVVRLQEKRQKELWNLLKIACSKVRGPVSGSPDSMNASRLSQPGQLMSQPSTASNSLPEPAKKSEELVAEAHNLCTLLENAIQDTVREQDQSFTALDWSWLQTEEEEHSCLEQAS
Description: In addition, recombinant IKKβ was expressed in Sf9 cells and purified as described (Zandi et al., supra). AA, PGs, LTB4, and T×B2 were added to washed imnmunoprecipitates of recombinant IKKβ in kinase buffer to a final volume of 500 μl. After 1.5 hours at 4° C., the immunoprecipitates were washed and the kinase activity determined. Western blot analysis was also performed as known in the art (See e.g., Rossi et al., supra).

NF-κB = NF-κB activation by EMSA in Jurkat cells stimulated with TNFα or TPA; format: cell-based, human
Description: (§1) Cells used in the experiments described herein were cultured in either RPMI 1640 (Jurkat cells) or DMEM (HeLa and COS cells), supplemented with 10% FBS and antibiotics. Cells were stimulated with either 25 ng/ml TPA, 20 ng/ml recombinant TNFα, or 10 ng/ml interleukin 1β (Sigma). PGA1, 15dPGJ2, T×B2, LTB4, AA and other PGs (Cayman) dissolved in ethanol were used as well, as known in the art (See e.g., Rossi et al., 94:746-750 [1997]). Controls received equal amounts of ethanol. Transfections were performed using Lipofectamine Plus (GIBCO) for HeLa and COS cells and DEAE-dextran (Sigma) for Jurkat cells. Xpress-tagged NIK, Xpress-tagged MEKK1, HA-tagged IKKα, and HA-tagged IKKβ were also used (See e.g., Zandi et al., Science 281:1360-1363 [1998]; and Delhase et al., Science 284:309-313 [1999]). COX2 and cPLA2 expression vectors were obtained from Dr. L. Feng (See also, Hirose et al., J. Am. Soc. Nephrol., 9:408-416 [1998]). PGD synthase was cloned from HT29 colon carcinoma cell line cDNA by PCR and subcloned into a pCDNA3 vector. Cells were lysed in buffer B (50 mM Tris-HCl, pH 7.5, 400 mM NaCl, 1 mM EDTA, 1 mM EGTA, 1% Triton, 0.5% NP-40, 10% glycerol, and supplemented with 20 mM β-glycerophosphate, 10 mM PNPP, 500 mM Na3VO4, 1 mM PMSF, 20 μg/ml aprotinin, 2.5 μg/ml leupeptin, 8.3 μg/ml bestatin, 1.7 μg/ml pepstatin, and 2 mM DTT). […]

IKK [2] = assay: MEKK1-induced IKK activity in COS cells; format: cell-based; details: data not shown
Description: as §1, with “vector.” for “vector. Cells were lysed in buffer B (50 mM Tris-HCl, pH 7.5, 400 mM NaCl, 1 mM EDTA, 1 mM EGTA, 1% Triton, 0.5% NP-40, 10% glycerol, and supplemented with 20 mM β-glycerophosphate, 10 mM PNPP, 500 mM Na3VO4, 1 mM PMSF, 20 μg/ml aprotinin, 2.5 μg/ml leupeptin, 8.3 μg/ml bestatin, 1.7 μg/ml pepstatin, and 2 mM DTT).”
(§2) Cell lysates were incubated with anti-IKKα (Pharmingen), anti-HA (12CA5; Pharmingen), anti-JNK1 (333.8; Pharmingen), or anti-p38 (New England Biolabs) for 2 hours. […] Endogenous IKK, HA-tagged IKKα, endogenous JNK1, and p38 activities were determined with GST-1κBα(1-54), GST-c-Jun(1-79), and GST-ATF2 as substrates.

IKK [3] = biological target: IKK (Homo sapiens, UniProt O14920+O15111); assay: Endogenous IKK activity (kinase assay) in Jurkat cells stimulated with TNFα or TPA; format: cell-based; set-up: endogenous in cells
Description: as §1, with “vector.” for “vector. Cells were lysed in buffer B (50 mM Tris-HCl, pH 7.5, 400 mM NaCl, 1 mM EDTA, 1 mM EGTA, 1% Triton, 0.5% NP-40, 10% glycerol, and supplemented with 20 mM β-glycerophosphate, 10 mM PNPP, 500 mM Na3VO4, 1 mM PMSF, 20 μg/ml aprotinin, 2.5 μg/ml leupeptin, 8.3 μg/ml bestatin, 1.7 μg/ml pepstatin, and 2 mM DTT).”
as §2, with “substrates. […]” for “substrates.”

Sequence of IKK (Homo sapiens, UniProt O14920+O15111) (O14920 whole entry): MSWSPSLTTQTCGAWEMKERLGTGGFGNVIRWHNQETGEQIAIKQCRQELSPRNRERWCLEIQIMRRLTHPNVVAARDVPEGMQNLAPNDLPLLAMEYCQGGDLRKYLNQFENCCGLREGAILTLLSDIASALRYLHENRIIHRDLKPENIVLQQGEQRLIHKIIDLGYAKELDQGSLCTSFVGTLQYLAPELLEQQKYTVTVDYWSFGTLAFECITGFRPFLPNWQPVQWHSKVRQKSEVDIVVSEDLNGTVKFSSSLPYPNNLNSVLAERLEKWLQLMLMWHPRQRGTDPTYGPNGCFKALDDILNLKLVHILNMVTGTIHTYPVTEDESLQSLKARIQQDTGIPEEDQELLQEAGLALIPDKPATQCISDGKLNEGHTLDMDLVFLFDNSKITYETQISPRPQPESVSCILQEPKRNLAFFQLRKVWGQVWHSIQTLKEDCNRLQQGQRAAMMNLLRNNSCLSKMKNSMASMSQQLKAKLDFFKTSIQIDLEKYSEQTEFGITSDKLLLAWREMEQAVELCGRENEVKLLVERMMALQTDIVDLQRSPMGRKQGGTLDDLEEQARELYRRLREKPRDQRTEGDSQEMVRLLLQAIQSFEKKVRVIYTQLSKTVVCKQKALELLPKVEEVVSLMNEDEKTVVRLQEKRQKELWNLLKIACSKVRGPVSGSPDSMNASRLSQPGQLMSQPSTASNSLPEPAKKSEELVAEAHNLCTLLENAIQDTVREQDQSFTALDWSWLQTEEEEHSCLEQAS
Sequence of IKK (Homo sapiens, UniProt O14920+O15111) (O15111 whole entry): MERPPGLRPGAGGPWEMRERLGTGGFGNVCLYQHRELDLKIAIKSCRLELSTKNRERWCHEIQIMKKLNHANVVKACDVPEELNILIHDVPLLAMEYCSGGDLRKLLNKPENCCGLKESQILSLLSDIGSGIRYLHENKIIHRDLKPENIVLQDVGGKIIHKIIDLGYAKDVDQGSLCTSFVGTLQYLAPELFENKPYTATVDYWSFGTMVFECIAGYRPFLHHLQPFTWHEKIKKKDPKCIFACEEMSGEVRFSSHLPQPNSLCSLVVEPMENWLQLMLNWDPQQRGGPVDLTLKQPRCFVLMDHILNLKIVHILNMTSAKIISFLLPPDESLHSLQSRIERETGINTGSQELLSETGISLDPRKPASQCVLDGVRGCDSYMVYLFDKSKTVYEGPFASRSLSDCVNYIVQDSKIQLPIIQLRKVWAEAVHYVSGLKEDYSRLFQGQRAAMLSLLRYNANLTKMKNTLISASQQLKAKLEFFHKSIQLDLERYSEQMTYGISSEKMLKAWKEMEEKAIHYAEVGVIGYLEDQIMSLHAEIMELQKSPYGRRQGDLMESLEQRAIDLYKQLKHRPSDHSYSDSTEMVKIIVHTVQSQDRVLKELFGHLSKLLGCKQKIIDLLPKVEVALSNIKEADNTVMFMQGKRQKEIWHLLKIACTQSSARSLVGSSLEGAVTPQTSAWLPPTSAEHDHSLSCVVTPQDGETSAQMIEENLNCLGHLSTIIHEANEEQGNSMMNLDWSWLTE
Sequence of IKK (Homo sapiens, UniProt O14920+O15111) (Q9Y6K9 whole entry partner): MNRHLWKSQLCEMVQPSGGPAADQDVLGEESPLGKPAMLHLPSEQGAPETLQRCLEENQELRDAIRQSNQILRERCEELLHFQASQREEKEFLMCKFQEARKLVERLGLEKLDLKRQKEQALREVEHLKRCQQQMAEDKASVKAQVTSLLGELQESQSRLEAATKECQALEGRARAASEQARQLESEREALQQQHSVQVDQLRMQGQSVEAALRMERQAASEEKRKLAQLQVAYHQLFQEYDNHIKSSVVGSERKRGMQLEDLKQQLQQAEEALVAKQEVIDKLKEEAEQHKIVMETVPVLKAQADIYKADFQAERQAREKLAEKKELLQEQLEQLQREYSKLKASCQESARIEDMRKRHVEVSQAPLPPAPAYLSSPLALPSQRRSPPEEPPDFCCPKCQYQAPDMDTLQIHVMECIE
T1 sequence (P08047 whole entry): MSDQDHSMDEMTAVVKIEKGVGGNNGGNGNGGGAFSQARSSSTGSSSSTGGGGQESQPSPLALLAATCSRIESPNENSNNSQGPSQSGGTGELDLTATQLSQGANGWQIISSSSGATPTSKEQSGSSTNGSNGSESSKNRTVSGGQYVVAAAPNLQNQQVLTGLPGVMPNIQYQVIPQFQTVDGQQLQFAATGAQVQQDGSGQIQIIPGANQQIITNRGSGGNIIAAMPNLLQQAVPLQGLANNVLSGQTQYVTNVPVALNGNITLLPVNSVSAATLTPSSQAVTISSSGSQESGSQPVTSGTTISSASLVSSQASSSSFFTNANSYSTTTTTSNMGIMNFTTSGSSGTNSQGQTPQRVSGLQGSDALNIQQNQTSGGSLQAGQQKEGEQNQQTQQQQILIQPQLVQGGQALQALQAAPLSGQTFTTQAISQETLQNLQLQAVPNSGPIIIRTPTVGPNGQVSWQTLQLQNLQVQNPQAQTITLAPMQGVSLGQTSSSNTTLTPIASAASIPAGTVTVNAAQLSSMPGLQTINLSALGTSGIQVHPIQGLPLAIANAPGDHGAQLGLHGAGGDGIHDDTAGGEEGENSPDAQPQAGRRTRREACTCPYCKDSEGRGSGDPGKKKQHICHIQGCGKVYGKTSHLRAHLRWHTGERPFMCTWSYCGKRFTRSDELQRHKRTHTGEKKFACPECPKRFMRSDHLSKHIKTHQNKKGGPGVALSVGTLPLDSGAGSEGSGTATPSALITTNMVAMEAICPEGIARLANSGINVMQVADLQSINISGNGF

Row | effect on Sp1 DNA-binding activity (Sp1; 15dPGJ2, data not shown) | sensitivity of recombinant IKKβ(C179A) (IKKβ(C179A)) | IC50 (NF-κB; Homo sapiens, read-out: half-maximal inhibitory (IC50) concentration towards NF-κB) [µM] | effect on IKK activity after 15 minute exposure (IKK [3]; 15-min exposure, TPA 15 minutes) | SMILES | anti-inflammatory effect [1] | effect on NF-κB activation (NF-κB; TNFα or TPA) | effect on Sp1 DNA binding (Sp1; PGA1 (120 μM), FIG. 1A) | effect on MEKK1-induced IKK activity (IKK [2]) | effect on IKK activity (IKK [3]; 24 μM PGA1 2 hours, TNFα or TPA)
1 | did not inhibit | resistant |  |  | CCCCC/C=C/C=C1/C(=O)C=C[C@@H]1C/C=C\CCCC(=O)O [15dPGJ2, 15-deoxy-Δ^12-14-PGJ2] | anti-inflammatory effect |  |  |  | 
2 |  | resistant | 12 | partially inhibit | CCCCC[C@H](O)/C=C/[C@H]1C=CC(=O)C1CCCCCCC(=O)O (stereo partly shown) [PGA1, prostaglandin A1] |  | prevented | did not inhibit; also recorded: No effects | inhibited | inhibit IKK activity; also recorded: inhibited
